One assay addresses KAT2A (Homo sapiens, UniProt Q92830). Description: KAT2A degradation, Western Blot (Jess), NCI-H1048 cells. The format is cell-based. Also on record: degrader, Western blot (Jess). To be noted: NCI-H1048 cells, KAT2A, 24 h, Western Blot, vs DMSO; read-out: KAT2A NCI-H1048 DC50. The method, boiled down: (§1)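 NCI-H1048 cells grown in HITES medium with 5% FBS were treated with compounds for 24 h at 37° C. Lysates were run by capillary Western (Jess) with KAT2A or KAT2B antibodies and chemiluminescent detection. DC50 derived from percent protein reduction versus DMSO control.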

For another assay, the target named is KAT2B (Homo sapiens, UniProt Q92831). Description: KAT2B degradation, Western Blot (Jess), NCI-H1048 cells. The format is cell-based. More on the design: degrader, Western blot (Jess). To be noted: NCI-H1048 cells, KAT2B, 24 h, Western Blot, vs DMSO; read-out: KAT2B NCI-H1048 DC50. A digest of the protocol: as §1

From patent US20260306640A1, “TECHNOLOGIES TARGETING CELL STATES” (Auron Therapeutics, Inc., priority 2023, published 2026) come the findings set out here.

Sequence of KAT2B (Q92831 whole entry): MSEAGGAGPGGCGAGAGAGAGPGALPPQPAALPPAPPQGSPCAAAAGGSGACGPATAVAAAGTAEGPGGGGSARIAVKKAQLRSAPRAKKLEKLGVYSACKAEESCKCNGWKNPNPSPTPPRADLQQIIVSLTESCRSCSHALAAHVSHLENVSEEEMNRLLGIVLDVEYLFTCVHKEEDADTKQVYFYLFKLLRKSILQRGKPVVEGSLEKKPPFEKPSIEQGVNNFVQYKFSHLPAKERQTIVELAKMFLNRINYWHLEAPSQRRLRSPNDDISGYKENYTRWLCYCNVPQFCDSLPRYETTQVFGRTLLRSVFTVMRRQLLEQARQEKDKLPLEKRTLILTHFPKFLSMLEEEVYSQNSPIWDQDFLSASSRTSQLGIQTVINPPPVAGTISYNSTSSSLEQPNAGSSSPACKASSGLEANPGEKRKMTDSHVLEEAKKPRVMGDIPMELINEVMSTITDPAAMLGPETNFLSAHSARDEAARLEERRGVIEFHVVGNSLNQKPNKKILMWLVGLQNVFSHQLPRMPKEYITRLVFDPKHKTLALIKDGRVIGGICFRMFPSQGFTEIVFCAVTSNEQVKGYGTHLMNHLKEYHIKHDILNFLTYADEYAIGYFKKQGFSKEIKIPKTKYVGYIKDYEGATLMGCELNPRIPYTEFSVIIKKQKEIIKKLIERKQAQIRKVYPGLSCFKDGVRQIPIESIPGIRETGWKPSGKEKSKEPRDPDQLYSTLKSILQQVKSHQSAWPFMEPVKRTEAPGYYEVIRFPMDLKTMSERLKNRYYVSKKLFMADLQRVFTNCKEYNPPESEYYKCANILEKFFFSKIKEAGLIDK
Sequence of KAT2A (Q92830 whole entry): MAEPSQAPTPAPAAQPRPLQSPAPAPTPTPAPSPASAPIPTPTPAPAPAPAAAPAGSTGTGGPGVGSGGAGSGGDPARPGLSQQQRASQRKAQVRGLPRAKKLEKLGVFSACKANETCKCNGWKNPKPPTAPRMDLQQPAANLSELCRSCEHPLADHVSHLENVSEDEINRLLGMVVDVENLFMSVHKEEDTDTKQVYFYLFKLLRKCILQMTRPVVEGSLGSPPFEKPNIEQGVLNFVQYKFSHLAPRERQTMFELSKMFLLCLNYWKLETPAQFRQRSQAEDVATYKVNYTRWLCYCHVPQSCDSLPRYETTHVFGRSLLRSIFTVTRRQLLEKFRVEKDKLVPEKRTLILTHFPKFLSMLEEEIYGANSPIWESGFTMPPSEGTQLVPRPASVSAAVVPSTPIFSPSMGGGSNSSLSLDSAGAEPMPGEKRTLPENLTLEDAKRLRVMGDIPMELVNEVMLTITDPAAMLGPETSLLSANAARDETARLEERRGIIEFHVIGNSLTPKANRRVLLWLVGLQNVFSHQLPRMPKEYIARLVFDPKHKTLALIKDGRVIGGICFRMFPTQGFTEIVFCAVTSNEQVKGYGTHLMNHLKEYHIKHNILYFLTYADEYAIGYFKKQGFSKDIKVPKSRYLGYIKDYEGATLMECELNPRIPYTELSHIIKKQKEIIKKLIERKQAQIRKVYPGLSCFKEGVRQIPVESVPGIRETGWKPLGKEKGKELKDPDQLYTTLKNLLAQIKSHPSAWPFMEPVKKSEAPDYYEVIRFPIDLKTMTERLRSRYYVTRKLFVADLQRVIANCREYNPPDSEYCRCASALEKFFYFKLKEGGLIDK

For `CN1C[C@H](Nc2cnn(C)c(=O)c2Cl)C[C@H](c2ccc(C(=O)N3CCC4(CCC(c5ccc(C6CCC(=O)NC6=O)cc5)CC4)CC3)cc2)C1` (stereo partly shown) [Compound 324], the DC50 on KAT2A and at KAT2B was less than 1 nM in each case.
Turning to `CN1C[C@H](Nc2cnn(C)c(=O)c2Br)C[C@H](c2ccc(C(=O)N3CCC4(CCC(c5ccc(C6CCC(=O)NC6=O)c(F)c5)CC4)CC3)cc2)C1` (stereo partly shown) [Compound 325], the DC50 on KAT2A and on KAT2B was less than 1 nM throughout.
Consider `CN1C[C@H](Nc2cnn(C)c(=O)c2Br)C[C@H](c2ccc(C(=O)N3CCC4(CCC(c5ccc(C6CCC(=O)NC6=O)cc5)CC4)CC3)cc2)C1` (stereo partly shown) [Compound 326], for which the DC50 at KAT2A and at KAT2B was less than 1 nM each time.
Take `CN1C[C@H](Nc2cnn(C)c(=O)c2Cl)C[C@H](c2ccc(C(=O)N3CCC(Cc4ccc(N5CCC(=O)NC5=O)c(F)c4)CC3)cc2)C1` [Compound 327]: the DC50 at KAT2A is less than 1 nM; at KAT2B, 1 to 30 nM.
In the case of `CN1C[C@H](Nc2cnn(C)c(=O)c2Br)C[C@H](c2ccc(C(=O)N3CCC(Cc4ccc(C5CCC(=O)NC5=O)c(F)c4)CC3)cc2)C1` (stereo partly shown) [Compound 328], the DC50 on KAT2A and on KAT2B was less than 1 nM throughout.
In the case of `CN1C[C@H](Nc2cnn(C)c(=O)c2Cl)C[C@H](c2ccc(C(=O)N3CCC4(CCC(c5ccc6c(C7CCC(=O)NC7=O)cncc6c5)CC4)CC3)cc2)C1` (stereo partly shown) [Compound 329], the DC50 on KAT2A and on KAT2B was less than 1 nM throughout.
In the case of `CN1C[C@H](Nc2cnn(C)c(=O)c2Br)C[C@H](c2ccc(C(=O)N3CCC(c4ccc5c(C6CCC(=O)NC6=O)cncc5c4)CC3)cc2)C1` (stereo partly shown) [Compound 330], the figures for the DC50 on KAT2A and on KAT2B were less than 1 nM and greater than 30 nM, respectively.
In the case of `CN1C[C@H](Nc2cnn(C)c(=O)c2Cl)C[C@H](c2ccc(C(=O)N3CCC(c4ccc5c(C6CCC(=O)NC6=O)cncc5c4)CC3)cc2)C1` (stereo partly shown) [Compound 331], the DC50 at KAT2A was less than 1 nM; on KAT2B, greater than 30 nM.
In the same order, the values of `CN1C[C@H](Nc2cnn(C)c(=O)c2Cl)C[C@H](c2ccc(C(=O)N3CCC(C#Cc4ccc(C5CCC(=O)NC5=O)cc4)CC3)cc2)C1` (stereo partly shown) [Compound 332] are less than 1 nM and greater than 30 nM.
With `Cc1c(N[C@@H]2C[C@H](c3ccc(C(=O)N4CCC(C#Cc5ccc(C6CCC(=O)NC6=O)cc5)CC4)cc3)CN(C)C2)cnn(C)c1=O` (stereo partly shown) [Compound 333], the values for the DC50 on KAT2A and on KAT2B were less than 1 nM and greater than 30 nM, respectively.
As to `CN1C[C@H](Nc2cnn(C)c(=O)c2Br)C[C@H](c2ccc(C(=O)N3CCC(C#Cc4ccc(C5CCC(=O)NC5=O)cc4)CC3)cc2)C1` (stereo partly shown) [Compound 334], the values for the DC50 at KAT2A and at KAT2B were less than 1 nM and 1 to 30 nM, respectively.
In the same order, the values of `CN1C[C@H](Nc2cnn(C)c(=O)c2Br)C[C@H](c2ccc(C(=O)N3CC(C#Cc4ccc(C5CCC(=O)NC5=O)cc4)C3)cc2)C1` (stereo partly shown) [Compound 335] are less than 1 nM and greater than 30 nM.
For `CN1C[C@H](Nc2cnn(C)c(=O)c2Cl)C[C@H](c2ccc(C(=O)N3CC(C#Cc4ccc(C5CCC(=O)NC5=O)cc4)C3)cc2)C1` (stereo partly shown) [Compound 336] the same measures were less than 1 nM and greater than 30 nM.
Consider `CN1C[C@H](Nc2cnn(C)c(=O)c2Br)C[C@H](c2ccc(C(=O)N3CC(C#Cc4ccc(C5CCC(=O)NC5=O)cc4)C3)cc2)C1` (stereo partly shown) [Compound 337], for which the values for the DC50 at KAT2A and on KAT2B were less than 1 nM and greater than 30 nM, respectively.
With `Cc1cc(N2CCC3(CCN(Cc4ccc([C@H]5C[C@@H](Nc6cnn(C)c(=O)c6Cl)CN(C)C5)cc4)CC3)CC2)ccc1C1CCC(=O)NC1=O` (stereo partly shown) [Compound 338], the DC50 on KAT2A and on KAT2B was less than 1 nM in each case.
As to `Cc1cc(N2CCC3(CCN(Cc4ccc([C@H]5C[C@@H](Nc6cnn(C)c(=O)c6C)CN(C)C5)cc4)CC3)CC2)ccc1C1CCC(=O)NC1=O` (stereo partly shown) [Compound 339], the DC50 at KAT2A and on KAT2B was less than 1 nM throughout.
As for `CN1C[C@H](Nc2cnn(C)c(=O)c2Cl)C[C@H](c2ccc(CN3CCC4(CC3)CCN(c3ccc(C5CCC(=O)NC5=O)c(F)c3)CC4)cc2)C1` (stereo partly shown) [Compound 340], the DC50 at KAT2A and on KAT2B was less than 1 nM each time.
With `CN1C[C@H](Nc2cnn(C)c(=O)c2Cl)C[C@H](c2ccc(CN3CCN(c4ccc(F)c(C5CCC(=O)NC5=O)c4)CC3)cc2)C1` (stereo partly shown) [Compound 341], the DC50 was less than 1 nM on KAT2A and 1 to 30 nM on KAT2B.
As for `Cc1c(N[C@@H]2C[C@H](c3ccc(CN4CCN(c5ccc(F)c(C6CCC(=O)NC6=O)c5)CC4)cc3)CN(C)C2)cnn(C)c1=O` (stereo partly shown) [Compound 342], the DC50 at KAT2A is less than 1 nM; on KAT2B, 1 to 30 nM.
In the same order, the values of `CN1C[C@H](Nc2cnn(C)c(=O)c2Cl)C[C@H](c2ccc(CN3CCC4(CC3)CCN(c3ccc(C5CCC(=O)NC5=O)c(C(F)(F)F)c3)CC4)cc2)C1` (stereo partly shown) [Compound 343] are greater than 30 nM and greater than 30 nM.
In the same order, the values of `CN1C[C@H](Nc2cnn(C)c(=O)c2Cl)C[C@H](c2ccc(CN3CCN(c4cncc(C5CCC(=O)NC5=O)c4)CC3)cc2)C1` (stereo partly shown) [Compound 344] are greater than 30 nM and greater than 30 nM.
Take `Cc1c(N[C@@H]2C[C@H](c3ccc(CN4CCN(c5cncc(C6CCC(=O)NC6=O)c5)CC4)cc3)CN(C)C2)cnn(C)c1=O` (stereo partly shown) [Compound 346]: the DC50 on KAT2A and on KAT2B was greater than 30 nM in each case.
As for `CN1C[C@H](Nc2cnn(C)c(=O)c2Cl)C[C@H](c2ccc(CN3CCN(c4cccc(C5CCC(=O)NC5=O)c4)CC34CC4)cc2)C1` (stereo partly shown) [Compound 347], the DC50 was 1 to 30 nM on KAT2A and greater than 30 nM at KAT2B.
In the same order, the values of `CN1C[C@H](Nc2cnn(C)c(=O)c2Br)C[C@H](c2ccc(CN3CCN(c4cccc(C5CCC(=O)NC5=O)c4)CC34CC4)cc2)C1` (stereo partly shown) [Compound 348] are less than 1 nM and 1 to 30 nM.
For `Cc1c(N[C@@H]2C[C@H](c3ccc(CN4CCN(c5cccc(C6CCC(=O)NC6=O)c5)CC45CC5)cc3)CN(C)C2)cnn(C)c1=O` (stereo partly shown) [Compound 349] the same measures were less than 1 nM and greater than 30 nM.
For `CN1C[C@H](Nc2cnn(C)c(=O)c2Br)C[C@H](c2ccc(CN3CCN(c4ccnc(C5CCC(=O)NC5=O)c4)CC3)cc2)C1` (stereo partly shown) [Compound 350], the results for the DC50 at KAT2A and at KAT2B were 1 to 30 nM and greater than 30 nM, respectively.
With `CN1C[C@H](Nc2cnn(C)c(=O)c2Cl)C[C@H](c2ccc(CN3CCN(c4ccnc(C5CCC(=O)NC5=O)c4)CC3)cc2)C1` (stereo partly shown) [Compound 351], the values for the DC50 at KAT2A and on KAT2B were 1 to 30 nM and greater than 30 nM, respectively.
In the same order, the values of `Cc1c(N[C@@H]2C[C@H](c3ccc(CN4CCN(c5ccnc(C6CCC(=O)NC6=O)c5)CC4)cc3)CN(C)C2)cnn(C)c1=O` (stereo partly shown) [Compound 352] are 1 to 30 nM and greater than 30 nM.
In the same order, the values of `CN1C[C@H](Nc2cnn(C)c(=O)c2Br)C[C@H](c2ccc(CN3C4CC3CN(c3cccc(C5CCC(=O)NC5=O)c3)C4)cc2)C1` (stereo partly shown) [Compound 353] are less than 1 nM and greater than 30 nM.
As for `CN1C[C@H](Nc2cnn(C)c(=O)c2Cl)C[C@H](c2ccc(CN3C4CC3CN(c3cccc(C5CCC(=O)NC5=O)c3)C4)cc2)C1` (stereo partly shown) [Compound 354], the DC50 at KAT2A is 1 to 30 nM; on KAT2B, greater than 30 nM.
In the case of `CN1C[C@H](Nc2cnn(C)c(=O)c2Br)C[C@H](c2ccc(CN3CCN(c4cc(C5CCC(=O)NC5=O)ccn4)CC3)cc2)C1` (stereo partly shown) [Compound 355], the DC50 at KAT2A is 1 to 30 nM; at KAT2B it was greater than 30 nM.
For `CN1C[C@H](Nc2cnn(C)c(=O)c2Cl)C[C@H](c2ccc(CN3CCN(c4cc(C5CCC(=O)NC5=O)ccn4)CC3)cc2)C1` (stereo partly shown) [Compound 356] the same measures were 1 to 30 nM and greater than 30 nM.
In the same order, the values of `Cc1c(N[C@@H]2C[C@H](c3ccc(CN4CCN(c5cc(C6CCC(=O)NC6=O)ccn5)CC4)cc3)CN(C)C2)cnn(C)c1=O` (stereo partly shown) [Compound 357] are 1 to 30 nM and greater than 30 nM.
With `CN1C[C@H](Nc2cnn(C)c(=O)c2Br)C[C@H](c2ccc(CN3CCN(c4cc(C5CCC(=O)NC5=O)c(F)cc4F)CC3)cc2)C1` (stereo partly shown) [Compound 358], the DC50 on KAT2A and on KAT2B was greater than 30 nM in each case.
Consider `CN1C[C@H](Nc2cnn(C)c(=O)c2Cl)C[C@H](c2ccc(CN3CCN(c4cc(C5CCC(=O)NC5=O)c(F)cc4F)CC3)cc2)C1` (stereo partly shown) [Compound 359], for which the DC50 on KAT2A and at KAT2B was greater than 30 nM in each case.
In the case of `Cc1c(N[C@@H]2C[C@H](c3ccc(CN4CCN(c5cc(C6CCC(=O)NC6=O)c(F)cc5F)CC4)cc3)CN(C)C2)cnn(C)c1=O` (stereo partly shown) [Compound 360], the DC50 on KAT2A and on KAT2B was greater than 30 nM throughout.
In the case of `CN1C[C@H](Nc2cnn(C)c(=O)c2Cl)C[C@H](c2ccc(CN3CCN(c4cccc(C5CCC(=O)NC5=O)c4)CC3)cc2)C1` (stereo partly shown) [Compound 361], the values for the DC50 on KAT2A and at KAT2B were less than 1 nM and 1 to 30 nM, respectively.
On to `Cc1cc(N2CCC3(CCN(C(=O)c4ccc([C@H]5C[C@@H](Nc6cnn(C)c(=O)c6Br)CN(C)C5)cc4)CC3)CC2)ccc1OC1CCC(=O)NC1=O` (stereo partly shown) [Compound 364], for which the DC50 is less than 1 nM on KAT2A and greater than 30 nM on KAT2B.
Consider `Cc1cc(N2CCC3(CCN(C(=O)c4ccc([C@H]5C[C@@H](Nc6cnn(C)c(=O)c6Cl)CN(C)C5)cc4)CC3)CC2)ccc1OC1CCC(=O)NC1=O` (stereo partly shown) [Compound 365], for which the DC50 on KAT2A and at KAT2B was less than 1 nM each time.
`CN1C[C@H](Nc2cnn(C)c(=O)c2Br)C[C@H](c2ccc(C(=O)N3CCC4(CC3)CCN(c3ccc(OC5CCC(=O)NC5=O)cn3)CC4)cc2)C1` (stereo partly shown) [Compound 366]: the DC50 on KAT2A was less than 1 nM; on KAT2B, 1 to 30 nM.
Turning to `CN1C[C@H](Nc2cnn(C)c(=O)c2Cl)C[C@H](c2ccc(C(=O)N3CCC4(CC3)CCN(c3ccc(OC5CCC(=O)NC5=O)cn3)CC4)cc2)C1` (stereo partly shown) [Compound 367], the DC50 was less than 1 nM on KAT2A and greater than 30 nM at KAT2B.

In general, DC50 refers to the midpoint of the concentration-degradation curve.
